Results from patent US20250296917A1, “SPIRO-CYCLIC AMINE DERIVATIVES AS S1P MODULATORS” (AbbVie Deutschland GmbH & Co. KG, priority 2020, published 2025).

How the values were obtained:
Type in all cases: cell-based
human S1PR3 = target: T1, human S1PR3 (Homo sapiens, UniProt Q99500); assay: Intracellular Ca2+ release agonist assay (Calcium 5 FLIPR), CHO-K1 cells expressing human S1PR3; details: agonism, recombinant CHO-K1 cells with aequorin and Gq/i5; read-out: hS1PR3 pEC50 (converted)
T1 construct: host or cells: CHO-K1
T1 sequence (Q99500 whole entry): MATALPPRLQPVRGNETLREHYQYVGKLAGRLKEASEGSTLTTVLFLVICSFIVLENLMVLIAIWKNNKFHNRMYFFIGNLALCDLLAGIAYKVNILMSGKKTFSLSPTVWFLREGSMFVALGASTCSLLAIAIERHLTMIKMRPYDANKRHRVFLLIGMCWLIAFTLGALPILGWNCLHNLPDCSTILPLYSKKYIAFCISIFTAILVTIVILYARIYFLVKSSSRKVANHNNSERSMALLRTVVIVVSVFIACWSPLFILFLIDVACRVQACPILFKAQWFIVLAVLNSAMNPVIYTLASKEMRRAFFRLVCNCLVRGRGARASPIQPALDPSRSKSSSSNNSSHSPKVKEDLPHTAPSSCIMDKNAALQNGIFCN
Procedure: (§1) Agonist potency and efficacy were assessed by measurement of intracellular […] release. Recombinant CHO-K1 cells (Euroscreen, Brussels, Belgium) expressing human S1PR5, S1PR1, S1PR3 or S1PR4 receptors, aequorin, and GTP binding protein Gq/i5 were cultured using a medium containing nutrient mixture F-12 Ham (Sigma-Aldrich) supplemented with 10% FBS, 100 µg/mL gentamicin and equilibrated at 5% C02. 15.000 cells in […] medium were seeded into Biocoat poly-D-Lysine coated 384 well plates (Becton Dickinson #35-6663) and grown to ˜95% confluency after 24 h. Culture medium was replaced by an assay buffer consisting of HBBS with Ca2+ and Mg2+ (Invitrogen #14025-050), 20 mmol/L Hepes (Sigma-Aldrich #H-3375), 2.5 mmol/L probenecid (Sigma-Aldrich #P-8761, and 0.1% BSA (Sigma-Aldrich #A-7030) pH 7.4. The Calcium 5 no-wash FLIPR assay kit (Molecular Devices #5000625) was performed as described in the kit instructions. Cells were incubated with Calcium 5 dye for 1 h at 37° C., 5% CO2 in the dark. After 45 min adaptation to RT assessment of agonist stimulation of intracellular Ca2+ release was performed by addition of test compounds at various concentrations obtained by serial dilution. Phospho-fingolimod was used as positive control and reference agonist (intrinsic activity 100%).

[1] = target: hS1PR2 (recombinant human S1P2 receptor) (Homo sapiens, UniProt O95136); assay: hS1PR2 agonist aequorin luminescence assay (Euroscreen/Eurofins); details: agonism, cells co-expressing apoaequorin, human Gα16 and S1P2 receptor; read-out: hS1PR2 pEC50 (converted)
hS1PR2 (recombinant human S1P2 receptor), sequence (O95136 whole entry): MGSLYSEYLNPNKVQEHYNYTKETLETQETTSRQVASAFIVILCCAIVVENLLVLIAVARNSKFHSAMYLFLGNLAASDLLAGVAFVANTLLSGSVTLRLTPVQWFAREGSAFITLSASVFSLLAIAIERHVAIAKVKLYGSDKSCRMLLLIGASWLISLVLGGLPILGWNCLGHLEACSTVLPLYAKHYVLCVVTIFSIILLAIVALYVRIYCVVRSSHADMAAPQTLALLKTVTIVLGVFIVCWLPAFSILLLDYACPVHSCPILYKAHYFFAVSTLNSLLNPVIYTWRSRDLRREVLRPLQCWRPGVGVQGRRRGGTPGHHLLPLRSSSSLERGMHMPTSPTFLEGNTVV
Procedure: Efficacy testing for hS1PR2 was performed at Euroscreen, Eurofins, France. Cells co-expressing mitochondrial Apoaequorin, recombinant human Gα16 and S1P2 receptor (FAST-0198A) grown to mid-log phase in culture media without antibiotics were detached with PBS-EDTA, centrifuged and resuspended in assay buffer (DMEM/HAM's F12 with HEPES, without phenol red+0.1 fatty acid free BSA) at a concentration of 1×10^6 cells/ml. Cells were incubated at room temperature for at least 4 h with coelenterazine. The reference agonists S1P and […] were tested to evaluate the performance of the assay on each day of the test and determine the EC50. For agonist testing, cell suspension was mixed 1:1 with test or reference agonist in 384-well plate. The resulting emission of light was recorded using a Hamamatsu Functional Drug Screening System 6000 (FDSS) luminometer. On each day of experimentation, reference compounds were tested at several concentrations to obtain a dose-response curve and an estimated EC50 value. Reference values thus obtained for the test were compared to historical values obtained from the same receptor and used to validate the experimental session.

human S1PR1 = target: T2, human S1PR1 (Homo sapiens, UniProt P21453); assay: Intracellular Ca2+ release agonist assay (Calcium 5 FLIPR), CHO-K1 cells expressing human S1PR1; details: agonism, recombinant CHO-K1 cells with aequorin and Gq/i5; read-out: hS1PR1 pEC50 (converted)
T2 construct: host or cells: CHO-K1
T2 sequence (P21453 whole entry): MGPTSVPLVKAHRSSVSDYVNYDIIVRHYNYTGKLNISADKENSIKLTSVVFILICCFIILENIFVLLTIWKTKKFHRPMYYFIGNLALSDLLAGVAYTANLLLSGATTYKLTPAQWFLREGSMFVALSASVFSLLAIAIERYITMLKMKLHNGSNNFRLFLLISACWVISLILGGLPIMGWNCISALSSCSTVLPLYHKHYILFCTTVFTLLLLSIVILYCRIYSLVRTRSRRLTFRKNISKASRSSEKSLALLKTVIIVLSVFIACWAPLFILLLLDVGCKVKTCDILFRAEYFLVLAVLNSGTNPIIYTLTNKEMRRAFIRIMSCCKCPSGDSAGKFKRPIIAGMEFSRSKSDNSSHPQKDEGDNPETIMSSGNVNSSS
Procedure: as §1

Measured: EC50

CCc1cccc(Cl)c1COc1ccc2c(c1)CC[C@@]21CN(CCC(=O)O)CCO1 [Compound 1a, (S)-3-(5-((2-chloro-6-ethylbenzyl)oxy)-2,3-dihydrospiro[indene-1,2′-morpholin]-4′-yl)propanoic acid]
< 5.01 µM: all assays above
